Laboratory results reported in ChEMBL document CHEMBL5113506, “Discovery of novel human lactate dehydrogenase inhibitors: Structure-based virtual screening studies and biological assessment” (Eur J Med Chem, 2022).
Calls of active or inactive are those of the source. The rule behind the calls is not given here.

Key:
[1] = Antiproliferation activity against human Med1 assessed as reduction in cell viability after 24 hrs by Trypan blue exclusion assay; format: functional, cell-based; details: Medulloblastoma cell
Medulloblastoma cell [2] = experiment: Antiproliferation activity against human Med1 assessed as reduction in cell viability at […] after 24 hrs by Trypan blue exclusion assay; format: functional, cell-based
Medulloblastoma cell [3] = experiment: Antiproliferation activity against human Med1 assessed as reduction in cell viability at 1 mM after 24 hrs by Trypan blue exclusion assay; format: functional, cell-based
[4] = target: L-lactate dehydrogenase B chain (Mus musculus, UniProt P16125); experiment: Inhibition of mouse LDHB using sodium pyruvate as substrate
Medulloblastoma cell [5] = experiment: Antiproliferation activity against human Med1 assessed as reduction in cell viability at 100 uM after 24 hrs by Trypan blue exclusion assay; format: functional, cell-based
[6] = target: T1, L-lactate dehydrogenase A chain (Homo sapiens, UniProt P00338); experiment: Inhibition of LDHA in human Med1 cells using pyruvate as substrate incubated 10 mins by spectrophotometric analysis; format: cell-based, Medulloblastoma cell
[7] = target: T1, L-lactate dehydrogenase A chain; experiment: Inhibition of LDHA in human Med1 cells assessed as reduction in lactate production by measuring ECAR using pyruvate as substrate incubated 6 hrs by seahorse extracellular flux analysis; format: cell-based; details: Medulloblastoma cell
HCT-116 [8] = experiment: Antiproliferation activity against human HCT-116 cells assessed as reduction in cell viability after 24 hrs by Trypan blue exclusion assay; format: functional, cell-based
SW-620 = experiment: Antiproliferation activity against human SW-620 cells assessed as reduction in cell viability after 24 hrs by Trypan blue exclusion assay; format: functional, cell-based
A549 = experiment: Antiproliferation activity against human A549 cells assessed as reduction in cell viability after 24 hrs by Trypan blue exclusion assay; format: functional, cell-based
PANC-1 = experiment: Antiproliferation activity against human PANC-1 cells assessed as reduction in cell viability after 24 hrs by Trypan blue exclusion assay; format: functional, cell-based
HCT-116 [9] = experiment: Induction of apoptosis in human HCT-116 cells assessed as increase in cleaved PARP protein expression level at 80 to 320 uM after 48 hrs by Western blot analysis; format: functional, cell-based; details: dose 80-320 µM
HCT-116 [10] = experiment: Induction of autophagy in human HCT-116 cells assessed as increase in LC3B-I lipidation protein expression level at 80 to 320 uM after 48 hrs by Western blot analysis; format: functional, cell-based; details: dose 80-320 µM
HCT-116 [11] = experiment: Antiproliferation activity against human HCT-116 cells assessed as reduction in cell viability after 24 hrs in presence of rotenone by Trypan blue exclusion assay; format: functional, cell-based
HCT-116 [12] = experiment: Induction of apoptosis in human HCT-116 cells assessed as increase in cleaved PARP protein expression level after 48 hrs in presence of rotenone by Western blot analysis; format: functional, cell-based
HCT-116 [13] = experiment: Induction of […] in human HCT-116 cells assessed as increase in LC3B-I lipidation protein expression level after 48 hrs in presence of rotenone by Western blot analysis; format: functional, cell-based
[14] = target: T1, L-lactate dehydrogenase A chain; experiment: Inhibition of LDHA in human liver using pyruvate as substrate incubated for 3 mins by fluorescence assay; format: tissue-based

Sequence of L-lactate dehydrogenase B chain (P16125 whole entry): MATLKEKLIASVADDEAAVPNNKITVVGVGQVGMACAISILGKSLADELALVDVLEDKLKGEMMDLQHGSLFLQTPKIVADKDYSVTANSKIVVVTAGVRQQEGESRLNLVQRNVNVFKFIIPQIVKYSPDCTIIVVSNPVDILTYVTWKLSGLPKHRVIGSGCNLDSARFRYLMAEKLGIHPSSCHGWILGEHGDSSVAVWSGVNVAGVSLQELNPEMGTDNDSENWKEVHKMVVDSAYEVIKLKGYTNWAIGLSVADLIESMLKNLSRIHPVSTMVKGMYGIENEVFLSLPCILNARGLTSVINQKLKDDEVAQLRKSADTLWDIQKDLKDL

SMILES	IC50 [1]	Activity (Medulloblastoma cell [2])	Activity (Medulloblastoma cell [3])	further results
CSc1cccc(-n2c(=O)n(Cc3ccc(C(=O)O)cc3)c(=O)c3[nH]cnc32)c1	8310 nM	Active		
CSc1sc(C(=O)O)cc1-c1nc(-c2ccc(C)cc2)cs1	964 nM	Active	Active	
Cc1cc2c(C(C)C)c(O)c(O)c(C=O)c2c(O)c1-c1c(C)cc2c(C(C)C)c(O)c(O)c(C=O)c2c1O [GOSSYPOL]				Ki [4]: 1400 nM
O=C(NCc1nn(C2CCCC2)c(=O)c2ccccc12)Nc1ccccc1F	8460 nM	Active	Active	
O=c1cc2c(nn1CC1CCN(C3=NS(=O)(=O)c4ccccc43)CC1)CCC2	81.8 nM	Active	Active	Activity (Medulloblastoma cell [5]): Active; IC50 [6]: 12 nM; inhibition [7]: Active; Activity (HCT-116 [8]): Active; Activity (SW-620): Active; Activity (A549): Active; Activity (PANC-1): Active; Activity (HCT-116 [9]): Active; Activity (HCT-116 [10]): Active; Activity (HCT-116 [11]): Active; Activity (HCT-116 [12]): Active; Activity (HCT-116 [13]): Active
O=c1cc2c(=O)oc3cc(O)c(O)oc3c2c(O)c1O				Ki [14]: 5460 nM
O=C(O)c1nnn(-c2ccc(F)cc2F)c1-c1ccccc1	1300 nM	Active	Active	
Cc1nn(-c2ncc(NC(=O)C3(c4ccccc4)CCOCC3)cn2)c(C)c1C	29.8 nM	Active	Active	Activity (Medulloblastoma cell [5]): Active
Cc1ccc(-c2c(C)c(C(=O)O)nn2-c2ccc(Cl)c(Cl)c2)cc1C	1140 nM	Active	Active	
NC(=O)C(=O)O [SODIUM OXAMATE]	15900 nM			
Cn1nc(C2CCN(C(=O)NCc3ccccc3)CC2)n(-c2ccccc2)c1=O	1510 nM	Active	Active	
Cc1cc(C(=O)N(CCc2cccs2)C2CCOCC2)no1	1160 nM	Active	Active	
